Measurements: US11845803B2, “Combination therapies for treatment of BCMA-related cancers and autoimmune disorders” (Fred Hutchinson Cancer Center, priority 2017, dated 2023)
No end group written: not given here.

Experiments:
C113ST T-ChARM T cells = assay: sBCMA binding to T-ChARM T cells (BCMA-Fc-APC staining after incubation with recombinant BCMA); parameters: species or system human; conditions: increasing levels of recombinant BCMA
Procedure: (L) sBCMA binding to C113ST-ChARM T cells of this disclosure. T cells were incubated with the indicated levels of recombinant sBCMA (right side of diagram) and then stained with a BCMA-Fc fusion that was conjugated to APC.
To examine whether high levels of sBCMA might inhibit the activity of BCMA-specific T-ChARM T cells, patient bone marrow (BM) sera were examined for sBCMA levels. […] To test whether sBCMA would bind to the T-ChARM T cells, the T cells were incubated with increasing levels of recombinant BCMA and then stained using BCMA-Fc conjugated to APC.

[1] = tested on: BCMA-specific T-ChARM T cells co-cultured with K562/BCMA+ cells; assay: Effect of exogenous soluble BCMA / BCMA-Fc on BCMA-specific T-ChARM T cell function; assay type: cell-based, human
Procedure: (H) IFN-γ production by BCMA-specific T-ChARM T cells in the presence of exogenous soluble BCMA. sBCMA was added to co-cultures of T cells expressing a BCMA-specific T-ChARM and K562 cells transduced with a polynucleotide encoding full-length BCMA (K562/BCMA^+).
(I) Data from another dose-titration experiment showing the effect of sBCMA on IFN-γ production by BCMA-specific T-ChARM T cells recognizing K562 BCMA^+ cells, which included adding sBCMA to culture at another, higher concentration (5000 ng/mL).
(N) Flow cytometry data showing IFN-γ production (y-axis) and CD4 expression (x-axis) by T cells expressing either a C113ST-ChARM (“C113ST”) of this disclosure or a control anti-CD19 CAR (“[…]”), in co-culture with target-expressing K562 cells and administered the BCMA-Fc fusion protein (left panels: 0 ng/ml BCMA-Fc; right panels: 1000 ng/ml BCMA-Fc.
(O) Dose titration showing IFN-γ release by CAR T cells in response to target cell lines as indicated in the presence or absence of exogenous recombinant BCMA (BCMA-Fc fusion). FMC63 (anti-CD19) vs. K562 CD19^+ (control; downward-facing triangle); C113ST T-ChARM T cells vs. RPMI 8226 (upward-facing triangle), U266 (square), and K562 BCMA^+ cells (circle). Data is representative of 2 independent experiments. Bars represent mean+SEM. P-value=<0.05, as determined by one-way ANOVA with post-test. MFI=mean fluorescence intensity.
(P) IFN-γ production (normalized Mean Fluorescence Intensity, MFI) by the T cells shown in FIG. 2O in co-culture with indicated antigen-expressing cells and in the presence or absence of BCMA-Fc (x-axis).
(Q) Cytolytic activity of CD8^+ C113ST T-ChARM T cells against K562 BCMA^+ target cells and of FMC63 CAR-T cells against K562 CD19^+ target cells at varying concentrations of recombinant BCMA, analyzed by a 4 h CRA at E:T ratio of 10:1. Data is representative of 2 independent experiments. Bars represent mean+SEM. P-value=<0.05, as determined by one way ANOVA with post-test. MFI=mean fluorescence intensity.
The effect of sBCMA was examined as well by adding sBCMA to co-cultures of T cells expressing a BCMA-specific T-ChARM and K562 cells transduced with a polynucleotide encoding full-length BCMA (K562/BCMA^+).

Row | Substance | BCMA-Fc-APC staining of T-ChARM T cells (C113ST T-ChARM T cells) | T-ChARM T cell effector function (IFN-γ release) ([1]; exogenous sBCMA added to co-culture with K562/BCMA+) | IFN-γ production by T-ChARM T cells ([1]; recombinant BCMA not fused to Fc) | lysis of K562 BCMA+ cells by T-ChARM T cells ([1]; recombinant BCMA not fused to Fc, 4 h CRA, E:T 10:1) | recognition (IFN-γ production and CD4 expression) by BCMA-targeting T-ChARM T cells ([1]; BCMA-Fc added to co-cultures) | recognition by control anti-CD19 CAR T cells ([1]; BCMA-Fc added, K562 cells expressing CD19) | dose dependence of effect on BCMA T-ChARM T cells ([1]; BCMA-Fc titration)
1 | sBCMA: exogenous soluble / recombinant BCMA not fused to Fc (MLQMAGQCSQNEYFDSLLHACIPCQLRCSSNTPPLTCQRYCNASVTNSVKGTNA) | staining decreased | dose-dependent inhibition | inhibited IFN-γ production in a dose-dependent fashion | did not inhibit lysis | – | – | –
2 | BCMA-Fc: recombinant BCMA-Fc fusion protein (MLQMAGQCSQNEYFDSLLHACIPCQLRCSSNTPPLTCQRYCNASVTNSVKGTNA; not fully specified; cysteine pairing not given here; also: fused to dimerising Fc or GST (not given here)) | – | – | – | – | much-reduced recognition | but not by control anti-CD19 CAR T cells | dose-dependent
